Data on 22 compounds can be found in patent US20240182481A1 (Tango Therapeutics, Inc., priority 2021, published 2024).

Read-outs that look alike come from different tables or passages of the source.

The test system of assay [1] is MDA-MB-436 (BRCA1 mutant) cell line. The experiment in a line: Viability assay in BRCA1 mutant cell line MDA-MB-436. The conditions noted are these: Homo sapiens, BRCA1 mutant MDA-MB-436, read-out: MDA-MB-436 rel IC50. The class given is cell-based. An excerpt: (§1) Table 1 also indicates IC50 values in a viability assay for a non-isogenic pair of BRCA1 mutant (column 5—MDA-MB-436) and BRCA1 WT (column 6—HCC1954) cell lines. These values indicate the effect of treatment with compound on cell survival.

The subject of the next assay is monoubiquitinated PCNA. The experiment in a line: AlphaLISA assay measuring monoubiquitinated PCNA in MDA-MB-436. The class given is cell-based. The conditions noted are these: Homo sapiens, read-out: Alpha LISA IC50. From the text: Table 1 also indicates IC50 values for exemplary compounds in an AlphaLISA assay measuring monoubiquitinated PCNA in a BRCA1 mutant cell line (MDA-MB-436; column 7).
In general terms: In Alpha technology, singlet oxygen from a donor bead excites a nearby acceptor bead.

The next assay has as its target USP1-UAF1 (Homo sapiens, UniProt O94782). Kind of assay: Ubiquitin Rhodamine assay for USP1-UAF1 activity. Type of assay: biochemical. As to the method: Certain compounds of the disclosure were assessed for USP1-UAF1 activity in a Ubiquitin Rhodamine assay as described in Example 135.
The subject of assay [2] is HCC1954 (BRCA1 WT) cell line. The experiment in a line: Viability assay in BRCA1 WT cell line HCC1954. The class given is cell-based. The conditions noted are these: Homo sapiens, read-out: HCC 1954 IC50 rel IC50.
Text: as §1

Chain of USP1-UAF1 (O94782 whole entry): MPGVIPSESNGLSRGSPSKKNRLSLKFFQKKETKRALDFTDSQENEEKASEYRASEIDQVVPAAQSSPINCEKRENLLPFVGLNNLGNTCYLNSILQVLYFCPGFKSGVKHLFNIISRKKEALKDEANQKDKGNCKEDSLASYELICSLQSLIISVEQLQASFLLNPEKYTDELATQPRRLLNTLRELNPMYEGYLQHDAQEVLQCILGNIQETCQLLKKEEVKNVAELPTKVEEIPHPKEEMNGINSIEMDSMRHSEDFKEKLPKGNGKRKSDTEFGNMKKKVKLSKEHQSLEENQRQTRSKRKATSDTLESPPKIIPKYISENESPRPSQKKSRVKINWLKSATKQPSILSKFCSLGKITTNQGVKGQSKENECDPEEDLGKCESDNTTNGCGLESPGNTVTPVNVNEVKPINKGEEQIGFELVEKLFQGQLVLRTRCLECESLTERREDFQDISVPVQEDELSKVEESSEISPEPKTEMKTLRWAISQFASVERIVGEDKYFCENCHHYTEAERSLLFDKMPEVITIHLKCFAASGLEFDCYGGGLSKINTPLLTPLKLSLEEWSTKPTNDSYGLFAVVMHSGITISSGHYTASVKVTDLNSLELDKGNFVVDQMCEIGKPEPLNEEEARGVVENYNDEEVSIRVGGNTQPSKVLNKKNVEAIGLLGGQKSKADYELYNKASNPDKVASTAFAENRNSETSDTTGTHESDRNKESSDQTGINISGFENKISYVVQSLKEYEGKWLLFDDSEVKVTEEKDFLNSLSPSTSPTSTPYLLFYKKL
Chain of USP1-UAF1 (Q8TAF3 whole entry partner): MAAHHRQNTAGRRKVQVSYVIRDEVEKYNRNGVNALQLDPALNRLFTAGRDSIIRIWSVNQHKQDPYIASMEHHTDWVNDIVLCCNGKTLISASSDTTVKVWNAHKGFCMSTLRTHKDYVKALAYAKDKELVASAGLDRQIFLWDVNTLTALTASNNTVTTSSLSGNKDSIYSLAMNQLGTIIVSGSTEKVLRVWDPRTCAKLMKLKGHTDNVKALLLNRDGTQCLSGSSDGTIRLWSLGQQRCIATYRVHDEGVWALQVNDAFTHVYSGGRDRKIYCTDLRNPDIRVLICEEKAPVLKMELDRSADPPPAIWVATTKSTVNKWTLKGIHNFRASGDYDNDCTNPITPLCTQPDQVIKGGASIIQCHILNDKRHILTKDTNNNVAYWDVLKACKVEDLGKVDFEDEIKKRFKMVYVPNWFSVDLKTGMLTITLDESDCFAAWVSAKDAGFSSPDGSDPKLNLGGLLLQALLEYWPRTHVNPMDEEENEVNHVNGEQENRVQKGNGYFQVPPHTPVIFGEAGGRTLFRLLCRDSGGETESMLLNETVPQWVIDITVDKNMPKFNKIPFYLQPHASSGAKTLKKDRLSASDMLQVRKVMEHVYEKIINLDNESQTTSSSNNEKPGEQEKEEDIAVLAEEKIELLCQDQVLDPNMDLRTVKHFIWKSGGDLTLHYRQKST

Usually IC50 stands for the concentration that inhibits the measured activity by half. As for `COc1nccc(C)c1-c1ncc2[nH]nc(Cc3ccc(-c4nc(C(F)(F)F)cn4C)cc3)c2n1` [Compound 191], the IC50 is 100 to 250 nM in assay [1] (MDA-MB-436, viability); 250 to 10000 nM with monoubiquitinated PCNA; 100 to 10000 nM against USP1-UAF1; ≥ 10 µM in assay [2].

Regarding `Cn1cc(C(F)(F)F)nc1-c1ccc(Sc2c[nH]c3cnc(-c4ccccc4C(F)(F)F)nc23)cc1` [Compound 84, 7-[4-[1-methyl-4-(trifluoromethyl)imidazol-2-yl]phenyl]sulfanyl-2-[2-(trifluoromethyl)phenyl]-5H-pyrrolo[3,2-d]pyrimidine], the IC50 in assay [1] (MDA-MB-436, viability) was 250 to 10000 nM; with monoubiquitinated PCNA it was 250 to 10000 nM; on USP1-UAF1, 100 to 10000 nM; in assay [2] it was ≥ 10 µM.

Take `Cn1cc(C(F)(F)F)nc1-c1ccc(Cc2c[nH]c3cnc(-c4cccnc4C4CC4)cc23)cc1` [Compound 66, 2-cyclopropyl-3-[3-([4-[1-methyl-4-(trifluoromethyl)imidazol-2-yl]phenyl]methyl)-1H-pyrrolo[2,3-c]pyridin-5-yl]pyridine]: the IC50 in assay [1] (MDA-MB-436, viability) is 100 to 250 nM; in the assay with monoubiquitinated PCNA it was < 100 nM; against USP1-UAF1, 30 to 100 nM; in assay [2] it was 0.25 to 10 µM.

Take `COc1ncnc(C2CC2)c1-c1nc(OC)c2[nH]cc(Cc3ccc(-c4nc(C(F)(F)F)cn4C)cc3)c2n1` [Compound 160]: the IC50 in assay [1] (MDA-MB-436, viability) fell in the range of 100 to 250 nM; in the assay with monoubiquitinated PCNA, 250 to 10000 nM; on USP1-UAF1, 100 to 10000 nM; in assay [2], 0.25 to 10 µM.

Take `[2H]C([2H])([2H])n1cc(C(F)(F)F)nc1-c1ccc(Cc2c[nH]c3cnc(-c4c(OC)ncnc4C4CC4)nc23)cc1` [Compound 135, 2-(4-cyclopropyl-6-methoxy-pyrimidin-5-yl)-7-[[4-[1-(trideuteriomethyl)-4-(trifluoromethyl)imidazol-2-yl]phenyl]methyl]-5H-pyrrolo[3,2-d]pyrimidine]: the IC50 in assay [1] (MDA-MB-436, viability) is < 100 nM; in the assay on monoubiquitinated PCNA, < 100 nM; on USP1-UAF1 it was < 30 nM; in assay [2], ≥ 10 µM.

For the compound `[2H]C([2H])([2H])n1nc(Cc2ccc(-c3nc(C(F)(F)F)cn3C)cc2)c2nc(-c3c(OC)ncnc3C3CC3)ncc21` [Compound 143, 5-(4-cyclopropyl-6-methoxy-pyrimidin-5-yl)-3-[[4-[1-methyl-4-(trifluoromethyl)imidazol-2-yl]phenyl]methyl]-1-(trideuteriomethyl)pyrazolo[4,3-d]pyrimidine], the IC50 is < 100 nM in assay [1] (MDA-MB-436, viability); < 100 nM in the assay on monoubiquitinated PCNA; < 30 nM against USP1-UAF1; ≥ 10 µM in assay [2].

Consider `COc1ncnc(C2CC2)c1-c1ncc2[nH]nc(Cc3ccc(-n4nc(C(F)(F)F)cc4OC)cc3)c2n1` [Compound 140, 5-(4-cyclopropyl-6-methoxy-pyrimidin-5-yl)-3-[[4-[5-methoxy-3-(trifluoromethyl)pyrazol-1-yl]phenyl]methyl]-1H-pyrazolo[4,3-d]pyrimidine], for which the IC50 in assay [1] (MDA-MB-436, viability) was < 100 nM; in the assay on monoubiquitinated PCNA, 100 to 250 nM; on USP1-UAF1, < 30 nM; in assay [2], 0.25 to 10 µM.

Regarding `CCOc1ncnc(C2CC2)c1-c1ncc2[nH]cc(Cc3ccc(-c4nc(C(F)(F)F)cn4C)cc3)c2n1` [Compound 111, 2-(4-cyclopropyl-6-ethoxy-pyrimidin-5-yl)-7-[[4-[1-methyl-4-(trifluoromethyl)imidazol-2-yl]phenyl]methyl]-5H-pyrrolo[3,2-d]pyrimidine], the IC50 was < 100 nM in assay [1] (MDA-MB-436, viability); < 100 nM in the assay on monoubiquitinated PCNA; 30 to 100 nM on USP1-UAF1; ≥ 10 µM in assay [2].

Regarding `COc1ncnc(C2CC2)c1-c1ncc2c(n1)c(Cc1ccc(-c3nc(C(F)(F)F)cn3C)cc1)cn2C(C)=O` [Compound 93, 1-[2-(4-cyclopropyl-6-methoxy-pyrimidin-5-yl)-7-[[4-[1-methyl-4-(trifluoromethyl)imidazol-2-yl]phenyl]methyl]pyrrolo[3,2-d]pyrimidin-5-yl]ethanone], the IC50 in assay [1] (viability) was < 100 nM; with monoubiquitinated PCNA, < 100 nM; on USP1-UAF1, 30 to 100 nM; in assay [2], ≥ 10 µM.

For the compound `COc1ncnc(C2CC2)c1-c1ncc2[nH]cc(Cc3ccc(-c4nc(C(F)(F)F)cn4C)cc3)c2n1` [Compound 65, 2-(4-cyclopropyl-6-methoxy-pyrimidin-5-yl)-7-[[4-[1-methyl-4-(trifluoromethyl)imidazol-2-yl]phenyl]methyl]-5H-pyrrolo[3,2-d]pyrimidine], the IC50 in assay [1] (MDA-MB-436, viability) was < 100 nM; in the assay on monoubiquitinated PCNA, < 100 nM; against USP1-UAF1 it was < 30 nM; in assay [2], ≥ 10 µM.

For `COc1ncnc(OC)c1-c1ncc2[nH]cc(Cc3ccc(-c4nc(C(F)(F)F)cn4C(C)C)cc3)c2n1` [Compound 182], the IC50 in assay [1] (MDA-MB-436, viability) is 100 to 250 nM; in the assay on monoubiquitinated PCNA, < 100 nM; against USP1-UAF1 it was 30 to 100 nM; in assay [2], ≥ 10 µM.

`COc1ccnc(C2CC2)c1-c1ncc2[nH]nc(Cc3ccc(-c4nc(C(F)(F)F)cn4C)cc3)c2n1` [Compound 116]: the IC50 in assay [1] (MDA-MB-436, viability) was < 100 nM; in the assay with monoubiquitinated PCNA it was 100 to 250 nM; at USP1-UAF1 it was < 30 nM; in assay [2], ≥ 10 µM.

On to `CC(C)Oc1ncnc(C2CC2)c1-c1ncc2[nH]nc(Cc3ccc(-c4nc(C(F)(F)F)cn4C)cc3)c2n1` [Compound 102], for which the IC50 in assay [1] (MDA-MB-436, viability) is 100 to 250 nM; in the assay with monoubiquitinated PCNA, 100 to 250 nM; against USP1-UAF1 it was < 30 nM; in assay [2], ≥ 10 µM.

With `COc1ccnc(C2CC2)c1-c1ncc2[nH]cc(Cc3ccc(-c4nc(C(F)(F)F)cn4C)cc3)c2n1` [Compound 161], the IC50 in assay [1] (MDA-MB-436, viability) is < 100 nM; in the assay with monoubiquitinated PCNA it was 100 to 250 nM; on USP1-UAF1 it was 30 to 100 nM; in assay [2], ≥ 10 µM.

In the case of `COc1ncnc(C2CC2)c1-c1ncc2[nH]c(CN)c(Cc3ccc(-c4nc(C(F)(F)F)cn4C)cc3)c2n1` [Compound 119], the IC50 is 100 to 250 nM in assay [1] (MDA-MB-436, viability); 250 to 10000 nM in the assay with monoubiquitinated PCNA; 100 to 10000 nM against USP1-UAF1; 0.25 to 10 µM in assay [2].

Turning to `Cn1cc(C(F)(F)F)nc1-c1ccc(Cc2c[nH]c3cnc(-c4c(OC(F)F)ncnc4C4CC4)nc23)cc1` [Compound 138, 2-[4-cyclopropyl-6-(difluoromethoxy)pyrimidin-5-yl]-7-[[4-[1-methyl-4-(trifluoromethyl)imidazol-2-yl]phenyl]methyl]-5H-pyrrolo[3,2-d]pyrimidine], the IC50 in assay [1] (MDA-MB-436, viability) was < 100 nM; in the assay with monoubiquitinated PCNA it was < 100 nM; against USP1-UAF1 it was < 30 nM; in assay [2], ≥ 10 µM.

Take `CCn1cc(C(F)(F)F)nc1-c1ccc(C(O)c2c[nH]c3cnc(-c4c(OC)ncnc4C4CC4)nc23)cc1` (stereo not shown) [Compound 33]: the IC50 in assay [1] (MDA-MB-436, viability) is 250 to 10000 nM; with monoubiquitinated PCNA, 250 to 10000 nM; at USP1-UAF1 it was 100 to 10000 nM; in assay [2], ≥ 10 µM.

For `COc1ncnc(C2CC2)c1-c1ncc2[nH]cc(Cc3ccc(-c4nc(C(F)(F)F)cn4C)c(F)c3)c2n1` [Compound 153, 2-(4-cyclopropyl-6-methoxy-pyrimidin-5-yl)-7-[[3-fluoro-4-[1-methyl-4-(trifluoromethyl)imidazol-2-yl]phenyl]methyl]-5H-pyrrolo[3,2-d]pyrimidine], the IC50 in assay [1] (MDA-MB-436, viability) was < 100 nM; with monoubiquitinated PCNA, < 100 nM; at USP1-UAF1, < 30 nM; in assay [2], ≥ 10 µM.

Turning to `COc1nccc(C2CC2)c1-c1ncc2[nH]cc(Cc3ccc(-c4nc(C(F)(F)F)cn4C)cc3)c2n1` [Compound 152, 2-(4-cyclopropyl-2-methoxy-3-pyridyl)-7-[[4-[1-methyl-4-(trifluoromethyl)imidazol-2-yl]phenyl]methyl]-5H-pyrrolo[3,2-d]pyrimidine], the IC50 is < 100 nM in assay [1] (MDA-MB-436, viability); < 100 nM in the assay with monoubiquitinated PCNA; < 30 nM at USP1-UAF1; ≥ 10 µM in assay [2].

`COc1ncnc(C2CC2)c1-c1ncc2[nH]cc(Cc3cc(F)c(-n4nc(C(F)(F)F)cc4C)c(F)c3)c2n1` [Compound 162, 2-(4-cyclopropyl-6-methoxy-pyrimidin-5-yl)-7-[[3,5-difluoro-4-[5-methyl-3-(trifluoromethyl)pyrazol-1-yl]phenyl]methyl]-5H-pyrrolo[3,2-d]pyrimidine]: the IC50 in assay [1] (MDA-MB-436, viability) is < 100 nM; with monoubiquitinated PCNA, < 100 nM; against USP1-UAF1, < 30 nM; in assay [2], ≥ 10 µM.

In the case of `COc1nccc(C2CC2)c1-c1ncc2[nH]nc(Cc3ccc(-c4nc(C(F)(F)F)cn4C)cc3)c2n1` [Compound 205, 5-(4-cyclopropyl-2-methoxy-3-pyridyl)-3-[[4-[1-methyl-4-(trifluoromethyl)imidazol-2-yl]phenyl]methyl]-1H-pyrazolo[4,3-d]pyrimidine], the IC50 in assay [1] (MDA-MB-436, viability) is < 100 nM; in the assay with monoubiquitinated PCNA, < 100 nM; on USP1-UAF1, < 30 nM; in assay [2], ≥ 10 µM.

Regarding `[2H]C([2H])([2H])n1cc(C(F)(F)F)nc1-c1ccc(Cc2n[nH]c3cnc(-c4c(OC)ncnc4C4CC4)nc23)cc1` [Compound 97, 5-(4-cyclopropyl-6-methoxy-pyrimidin-5-yl)-3-[[4-[1-(trideuteriomethyl)-4-(trifluoromethyl)imidazol-2-yl]phenyl]methyl]-1H-pyrazolo[4,3-d]pyrimidine], the IC50 in assay [1] (MDA-MB-436, viability) is < 100 nM; with monoubiquitinated PCNA, < 100 nM; on USP1-UAF1 it was < 30 nM; in assay [2], ≥ 10 µM.
